Here are results for 1 compound from patent publication US20170027172A1, “USE OF SUBSTITUTE OXO TETRAHYDROQUINOLINE SULFONAMIDES OR SALTS THEREOF FOR RAISING STRESS TOLERANCE OF PLANTS” (BAYER CROPSCIENCE AKTIENGESELLSCHAFT, priority 2014, published 2017).

SMILES strings stand for the structures.

The test system of experiment [1] is Triticum aestivum. Kind of experiment: Drought stress test on wheat Part D, reduction in damage intensity from fresh weights. The conditions noted are these: efficacy = reduction in damage intensity (fresh weight) under drought stress, 25 g/ha, at least three repeats. In kind it is in vivo. From the text: Wheat grains were sown in a standardized number in sandy loam soil plastic pots, covered with soil or sand and grown in a greenhouse under good growth conditions. Pots with uneven degrees of emergence were excluded prior to the start of the trial. The treatment with test substances was effected at the early leaf stage (BBCH10-BBCH13). To assure uniform water supply, the potted plants were supplied with water by dam irrigation prior to substance application. The inventive compounds were first formulated as wettable powders (WP) or dissolved in a solvent mixture. The further dilution was effected with water supplemented with 0.2% wetting agent (e.g. agrotin). The finished spray liquor was sprayed onto the green parts of the plant at an equivalent water application rate of 600 l/ha. Substance application was followed immediately by stress treatment of the plants. Drought stress was induced by gradual drying out under the following conditions: “Day”: 14 hours with illumination at 26-30° C. “Night”: 10 hours without illumination at 18-20° C. The duration of the respective stress phases was guided mainly by the condition of the stressed control plants. It was ended (by re-irrigating and transfer to a greenhouse with good growth conditions) as soon as irreversible damage was observed on the stressed control plants. The end of the stress phase was followed by an about 7-day recovery phase, during which the plants were once again kept under good growth conditions in a greenhouse. The exact duration of the recovery phase was variable for reasons related to the trial. At the end of the recovery phase, the fresh weights of the plant parts above ground were determined. By comparison with unstressed control plants which were kept under good growth conditions over the entire duration of the trial, percentage damage intensities were first calculated from the fresh weight values. The reduction in damage intensity resulting from treatment with test substance was then calculated by the following formula: [formula] EF: Efficacy DIs: Damage intensity of the stressed control plants DIt: Damage intensity of the stressed plants treated with test compound The values reported in table D-1 below are results from at least three repeats. BRSNS=Brassica napus TRZAS=Triticum aestivum

The test system of experiment [2] is Brassica napus. Kind of experiment: Drought stress greenhouse test Part C, visual scoring vs stressed control plants. The format is in vivo. The conditions noted are these: spray application 25 g/ha, efficacy range of 3-4 pots. As for the experimental part:
Seeds of monocotyledonous and dicotyledonous crop plants were sown in sandy loam in plastic or wood-fiber pots, covered with soil or sand and cultivated in a greenhouse under good growth conditions. The trial plants were treated at the early leaf stage (BBCH10-BBCH13). To assure uniform water supply before commencement of stress, the potted plants were supplied with water by dam irrigation prior to substance application. The inventive compounds were first formulated as wettable powders (WP) or dissolved in a solvent mixture. The further dilution was effected with water supplemented with 0.2% wetting agent (e.g. agrotin). The finished spray liquor was sprayed onto the green parts of the plant at an equivalent water application rate of 600 l/ha. Substance application was followed immediately by stress treatment of the plants. For this purpose, the wood-fiber pots were transferred in plastic inserts in order to prevent them from subsequently drying out too quickly. Drought stress was induced by gradual drying out under the following conditions: “Day”: 14 hours with illumination at 26-30° C. […] Once this juncture had been reached, the appearance of the plants treated with test substances was recorded in comparison to the stressed control plants by the following categories: [table] For each substance and dosage, 3-4 pots were treated and evaluated. […]

Regarding `COC(=O)CCN1C(=O)CCc2cc(NS(=O)(=O)Cc3ccc(F)cc3)ccc21` [A51-158], the “EF [%] (TRZAS)” value in experiment [1] was determined as 11%. Besides, the “Effect (BRSNS)” value in experiment [2] is on record as 20-30.
